Values quoted from earlier work in patent publication US8034838B2, “Composition and method for the treatment of neurological disorders” (priority 2008, dated 2011).

Key:
β-secretase = β-secretase (Homo sapiens, UniProt P56817)
[1] = after administration

Sequence of β-secretase (P56817 46-501): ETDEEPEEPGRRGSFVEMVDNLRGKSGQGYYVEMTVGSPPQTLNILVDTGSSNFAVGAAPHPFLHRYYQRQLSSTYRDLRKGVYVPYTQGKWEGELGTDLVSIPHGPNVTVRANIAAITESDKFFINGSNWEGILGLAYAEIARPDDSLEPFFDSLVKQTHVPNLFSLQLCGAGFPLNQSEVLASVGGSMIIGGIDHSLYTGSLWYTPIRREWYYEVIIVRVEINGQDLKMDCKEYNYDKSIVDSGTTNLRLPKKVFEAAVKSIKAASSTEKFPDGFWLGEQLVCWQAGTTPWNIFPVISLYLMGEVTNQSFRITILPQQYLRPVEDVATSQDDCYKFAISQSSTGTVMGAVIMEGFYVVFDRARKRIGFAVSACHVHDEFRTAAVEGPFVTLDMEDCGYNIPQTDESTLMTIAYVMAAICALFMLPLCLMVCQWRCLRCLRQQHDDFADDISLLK

In the case of `O=c1c(O)c(-c2cc(O)c(O)c(O)c2)oc2cc(O)cc(O)c12` [myricetin, Myricetin], the “regulation of β-secretase” value (β-secretase) is given as “down-regulates”, the “regulation of γ-secretase” value (γ-secretase) is given as “down-regulates” and the “regulation of α-secretase” value (α-secretase) is given as “up-regulates”. For the same compound, the “time to cross the blood brain barrier” value [1] was no more than 30 min.
